# Test results from article PMC9090415, “Discovery of small molecule inhibitors of Plasmodium falciparum apicoplast DNA polymerase” (Journal of Enzyme Inhibition and Medicinal Chemistry, 2022).
# Target: P. falciparum apicoplast DNA polymerase (Pf-apPOL) (Plasmodium falciparum, UniProt Q8ILY1)
# Experiment: Fluorescence-based high-throughput DNA polymerase assay (molecular beacon), primary screen and dose-response
# Type: biochemical
# Description: The HT assay employs a molecular beacon, a stem-loop DNA template with a Cy3 dye and the Black Hole Quencher on the 3′ and 5′ ends of the DNA, respectively. Pf-apPOL concentration is based on a calculated absorptivity of ε280 = 56750 M^−1 cm^−1. Reactions were carried out at 25 °C, using Corning 3575 […] (well-volume, 20 µL). Assays testing for compound inhibition composed of reaction buffer (pH 7.9 in 50 mM potassium acetate, 20 mM Tris-acetate and 10 mM magnesium acetate), Pf-apPOL (20 nM), DNA substrate (20 nM), dNTPs (6 µM), and compound (10 µM in DMSO). The DNA and nucleotide substrates (dNTPs) were at concentrations of 20 nM and 6 µM, respectively, in the assay. Pf-apPOL was incubated in the reaction buffer with dNTPs and the compound of interest (10 µM, in the assay) at 25 °C for 10 min. The DNA substrate was then added and the reaction was allowed to proceed for 90 min at 25 °C.
# Each assay plate contained 16 negative controls (no Pf-apPOL, DMSO present) and 16 positive controls (Pf-apPOL present, no DMSO). The fluorescence of each well was determined using a BioTek Synergy Neo fluorescence plate reader using excitation and emission wavelengths of 555 and 570 nm, respectively.
# In the above, Min is the average of fluorescence emission of the negative controls (substrate only), Max the average fluorescence emission from the positive controls (enzyme + substrate), and Test the emission from the assays in the presence of compounds (enzyme + compound + substrates). […] […] The IC50 of each compound was determined using Equation (2): (2) IC50= Vmax/(1+ (I/IC50)^n)
# In the above, n measures cooperativity, with n > 1 indicating synergistic binding of more than a single molecule of the compound.
# To identify apPOL inhibitors we utilised our previously developed high-throughput DNA polymerase assay. The HT assay is based on a molecular beacon DNA template that forms a stem-loop with a Cy3 dye and the Black Hole Quencher on the 3′ and 5′ ends of the DNA, respectively. DNA polymerase activity extends an annealed primer through the stem region, displacing the fluorophore from the quencher, thereby increasing its fluorescence (Figure 1(A)). The assay accurately recapitulates the kinetic behaviour of apPOL, as measured through more conventional low-throughput gel-based assays. The Z′ factor for the assay described here was 0.9 across all plates (data not shown).
# Figure 1. High-throughput screening. (A) The fluorescent-based DNA polymerase assay used to screen the compound libraries. The DNA template strand is a hairpin loop with a primer annealed to the loop. The 3’ end of the primer is 11 bases away from the 6 bp duplex. Strand displacement activity of the DNA polymerase separates the Cy3 dye from the Black hole quencher leading to an increase in fluorescent signal. (B) The high-throughput assay workflow. The DNA polymerase is incubated with […] compound for 10 min prior to addition of the hairpin substrate. The reaction is quenched at 3 different time points and the fluorescent signal is measured and % inhibition is determined using the provided equation.
# Sequence of P. falciparum apicoplast DNA polymerase (Pf-apPOL) (Q8ILY1 entry or part of it): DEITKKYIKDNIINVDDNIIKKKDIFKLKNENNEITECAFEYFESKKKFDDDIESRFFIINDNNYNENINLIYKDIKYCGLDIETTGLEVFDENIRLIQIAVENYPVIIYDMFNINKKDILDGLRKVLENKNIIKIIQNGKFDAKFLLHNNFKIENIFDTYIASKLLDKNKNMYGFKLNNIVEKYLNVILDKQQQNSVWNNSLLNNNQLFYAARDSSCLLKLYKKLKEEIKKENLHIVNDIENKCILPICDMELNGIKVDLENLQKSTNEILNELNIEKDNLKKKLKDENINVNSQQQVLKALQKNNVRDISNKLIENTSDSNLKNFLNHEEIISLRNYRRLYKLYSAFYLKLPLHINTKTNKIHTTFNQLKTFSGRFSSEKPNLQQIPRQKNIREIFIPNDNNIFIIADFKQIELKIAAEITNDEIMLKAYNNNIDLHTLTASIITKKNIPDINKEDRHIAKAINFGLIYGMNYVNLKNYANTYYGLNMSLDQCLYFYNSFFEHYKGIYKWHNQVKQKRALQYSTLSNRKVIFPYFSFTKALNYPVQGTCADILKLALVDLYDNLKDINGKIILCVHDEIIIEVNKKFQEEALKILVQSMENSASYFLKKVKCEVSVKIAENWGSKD
smiles,measurement,setting,value
COc1cc(/C=C2\S/C(=N/C(C)=O)NC2=O)cc(Br)c1OCC(=O)O [KU0057841],DNA Pol,"'DNA Pol'; screening value, unit not given; 90 min, 10 µM",27
same,% inhibition Apo pol 10',DRC-1; 10'; concentration 2.5,4.866%
same,% inhibition Apo pol 10',DRC-1; 10'; concentration 5,4.738%
same,% inhibition Apo pol 10',DRC-1; 10'; concentration 10,17.12%
same,% inhibition Apo pol 10',DRC-1; 10'; concentration 20,35.9073%
same,% inhibition Apo pol 10',DRC-1; 10'; concentration 40,63.4189%
same,% inhibition Apo pol 10',DRC-1; 10'; concentration 80,83.5237%
same,% inhibition Apol 90',DRC-1; 90'; concentration 2.5,3.601%
same,% inhibition Apol 90',DRC-1; 90'; concentration 5,-2.326%
same,% inhibition Apol 90',DRC-1; 90'; concentration 10,5.395%
same,% inhibition Apol 90',DRC-1; 90'; concentration 20,16.7076%
same,% inhibition Apol 90',DRC-1; 90'; concentration 40,36.5505%
same,% inhibition Apol 90',DRC-1; 90'; concentration 80,62.7524%
same,% inhibition apPOL 180',DRC-1; 180'; concentration 2.5,1.284%
same,% inhibition apPOL 180',DRC-1; 180'; concentration 5,-7.5244%
same,% inhibition apPOL 180',DRC-1; 180'; concentration 10,-2.004%
same,% inhibition apPOL 180',DRC-1; 180'; concentration 20,5.338%
same,% inhibition apPOL 180',DRC-1; 180'; concentration 40,19.6206%
same,% inhibition apPOL 180',DRC-1; 180'; concentration 80,44.2464%
same,% inhibition Apo pol 5',"DRC-2, 5', concentration 2.5",2.71%
same,% inhibition Apo pol 5',"DRC-2, 5', concentration 5",4.4%
same,% inhibition Apo pol 5',"DRC-2, 5', concentration 10",17%
same,% inhibition Apo pol 5',"DRC-2, 5', concentration 20",29%
same,% inhibition Apo pol 5',"DRC-2, 5', concentration 40",52%
same,% inhibition Apo pol 5',"DRC-2, 5', concentration 80",60%
same,% inhibition Apol 40',"DRC-2, 40', concentration 2.5",1.51%
same,% inhibition Apol 40',"DRC-2, 40', concentration 5",3.29%
same,% inhibition Apol 40',"DRC-2, 40', concentration 10",13%
same,% inhibition Apol 40',"DRC-2, 40', concentration 20",24%
same,% inhibition Apol 40',"DRC-2, 40', concentration 40",47%
same,% inhibition Apol 40',"DRC-2, 40', concentration 80",64%
same,% inhibition ApPOL 90',"DRC-2, 90', concentration 2.5",1.23%
same,% inhibition ApPOL 90',"DRC-2, 90', concentration 5",2.28%
same,% inhibition ApPOL 90',"DRC-2, 90', concentration 10",9.51%
same,% inhibition ApPOL 90',"DRC-2, 90', concentration 20",20%
same,% inhibition ApPOL 90',"DRC-2, 90', concentration 40",41%
same,% inhibition ApPOL 90',"DRC-2, 90', concentration 80",60%
same,% inhibition apPOL 180',"DRC-2, 180', concentration 2.5",1.62%
same,% inhibition apPOL 180',"DRC-2, 180', concentration 5",-1.41%
same,% inhibition apPOL 180',"DRC-2, 180', concentration 10",4%
same,% inhibition apPOL 180',"DRC-2, 180', concentration 20",14%
same,% inhibition apPOL 180',"DRC-2, 180', concentration 40",28%
same,% inhibition apPOL 180',"DRC-2, 180', concentration 80",49%
same,% inhibition Apo pol 5',conc 80 (unit not given); 5'; DRC-2,60%
same,% inhibition ApPOL 90',conc 80 (unit not given); 90'; DRC-2,60%
same,DNA Pol,"primary screen hit value, DNA Pol (186 hits); 90 min, 10 µM",27
O=C(O)c1ccc(COc2cc([N+](=O)[O-])cc3cccnc23)cc1 [KU0058403],DNA Pol,"'DNA Pol' of the 186 hits list (screen value); 90 min, 10 µM",59
same,% inhibition Apo pol 10',DRC-1; 10'; conc 2.5,14.3649%
same,% inhibition Apo pol 10',DRC-1; 10'; conc 5,27.7405%
same,% inhibition Apo pol 10',DRC-1; 10'; conc 10,42.2641%
same,% inhibition Apo pol 10',DRC-1; 10'; conc 20,75.4082%
same,% inhibition Apo pol 10',DRC-1; 10'; conc 40,92.5507%
same,% inhibition Apo pol 10',DRC-1; 10'; conc 80,97.3906%
same,% inhibition Apol 90',DRC-1; 90'; conc 2.5,7.929%
same,% inhibition Apol 90',DRC-1; 90'; conc 5,14.8475%
same,% inhibition Apol 90',DRC-1; 90'; conc 10,27.7051%
same,% inhibition Apol 90',DRC-1; 90'; conc 20,56.1594%
same,% inhibition Apol 90',DRC-1; 90'; conc 40,83.537%
same,% inhibition Apol 90',DRC-1; 90'; conc 80,95.378%
same,% inhibition apPOL 180',DRC-1; 180'; conc 2.5,6.111%
same,% inhibition apPOL 180',DRC-1; 180'; conc 5,9.076%
same,% inhibition apPOL 180',DRC-1; 180'; conc 10,18.5156%
same,% inhibition apPOL 180',DRC-1; 180'; conc 20,39.8383%
same,% inhibition apPOL 180',DRC-1; 180'; conc 40,74.9259%
same,% inhibition apPOL 180',DRC-1; 180'; conc 80,94.2886%
same,% inhibition Apo pol 5',DRC-2; 5'; conc 2.5,17%
same,% inhibition Apo pol 5',DRC-2; 5'; conc 5,21%
same,% inhibition Apo pol 5',DRC-2; 5'; conc 10,31%
same,% inhibition Apo pol 5',DRC-2; 5'; conc 20,43%
same,% inhibition Apo pol 5',DRC-2; 5'; conc 40,55%
same,% inhibition Apo pol 5',DRC-2; 5'; conc 80,60%
same,% inhibition Apol 40',DRC-2; 40'; conc 2.5,10%
same,% inhibition Apol 40',DRC-2; 40'; conc 5,14%
same,% inhibition Apol 40',DRC-2; 40'; conc 10,23%
same,% inhibition Apol 40',DRC-2; 40'; conc 20,39%
same,% inhibition Apol 40',DRC-2; 40'; conc 40,59%
same,% inhibition Apol 40',DRC-2; 40'; conc 80,74%
same,% inhibition ApPOL 90',DRC-2; 90'; conc 2.5,7%
same,% inhibition ApPOL 90',DRC-2; 90'; conc 5,12%
same,% inhibition ApPOL 90',DRC-2; 90'; conc 10,19%
same,% inhibition ApPOL 90',DRC-2; 90'; conc 20,35%
same,% inhibition ApPOL 90',DRC-2; 90'; conc 40,57%
same,% inhibition ApPOL 90',DRC-2; 90'; conc 80,76%
same,% inhibition ApPOL 90',DRC-2; 90'; concentration 80,76%
same,% inhibition apPOL 180',DRC-2; 180'; conc 2.5,1.43%
same,% inhibition apPOL 180',DRC-2; 180'; conc 5,2.25%
same,% inhibition apPOL 180',DRC-2; 180'; conc 10,8.43%
same,% inhibition apPOL 180',DRC-2; 180'; conc 20,22%
same,% inhibition apPOL 180',DRC-2; 180'; conc 40,48%
same,% inhibition apPOL 180',DRC-2; 180'; conc 80,76%
same,% inhibition apPOL 180',DRC-2; 180'; concentration 80,76%
same,DNA Pol,"primary screen value, ""DNA Pol""; 90 min, 10 µM",59
